Columns and labels:
Format in all cases: cell-based, human
[1] = tested on: LUHMES cells; experiment: Mitochondrial membrane potential (JC-1 probe); conditions: 24 h
Protocol: In PLO/FN-coated 24-well microplates, cells were simultaneously incubated with 20 nM of annonacin and the selected concentrations of Nrf2-pathway activators, in glucose-reduced medium, over the course of 24 h. After that, the medium was removed and cells were washed once with warm HBSS, followed by incubation with 5 µM JC-1 solution in HBSS, for 20 min at 37 °C. For the positive control, the mitochondrial oxidative phosphorylation uncoupler, CCCP, was used at a concentration of 50 µM. After the incubation period, cells were washed with HBSS, and fresh HBSS was added to keep the cells viable during live-image acquisition. Image acquisition was done on a fluorescence microscope Leica-DFC9000GTC (Leica, Frankfurt, Germany). Environmental conditions were kept steady at 37 °C with a 5% CO2 atmosphere during the entire acquisition time. Ten to fifteen images from different fields of view, dispersed across triplicates, were acquired with 200 × magnification (20 × objective, 10 × intermediate magnification), using the same image acquisition parameters for all conditions. The fluorescence of JC-1 monomers was captured on the green channel (λ Ex/Em = 475/519 nm) and the fluorescence of JC-1 aggregates was capture on the red channel (λ Ex/Em = 555/594 nm). Quantification of FI (fluorescence intensities) of JC-1 monomeric and aggregated forms was done using the ImageJ software (http://rsb.info.nih.gov/ij/, ImageJ bundled with 64-bit Java 8). Briefly, TIFF exported images were submitted to background subtraction using the rolling ball method with a radius of 50 pixels. Channel-specific thresholds were applied to all images to define the ROI (region of interest) and FI were measured as integrated density. Data were reported as the ratio between JC-1 aggregates and monomers, obtained by dividing the FI of the JC-1 aggregated form by the FI of the monomeric form.

[2] = tested on: LUHMES cells; experiment: Mitochondrial activity by MTT reduction; conditions: 24 h; for MTT reduction: protective concentration of compound + 20 nM annonacin
Protocol: Mitochondrial activity was estimated by the reduction of MTT (3-(4,5-dimethylthiazol-2-yl)-2,5-diphenyltetrazolium, Sigma-Aldrich). Briefly, LUHMES cells were seeded on PLO/FN-coated 48-well microplates, in triplicates. After a 24 h treatment with 20 nM of annonacin and the protective concentrations of Nrf2-pathway activators in glucose-reduced medium, cells were incubated with 0.5 mg/ml of MTT dissolved in PBS, at 37 °C for 30 min. After that, the medium was removed and the plate was frozen at -80 °C for 1 h, for cell lysing. Next, the plate was thawed and the MTT crystals were completely dissolved in 250 µl of DMSO with vigorous shaking. The absorbance was measured on a FLUOstar® Omega plate reader at λ = 590 nm, using λ = 630 nm absorbance as a background correction. The obtained results were analyzed with the MARS data analysis software (BMG LabTech). After background subtraction, the data were expressed as a percentage of MTT reduction relative to the control (DMSO-treated) condition. Determination of cellular ATP levels was done by using the ViaLight™ plus kit (Lonza, Basel, Switzerland), following the manufacturer’s instructions. Cells were seeded on PLO/FN-coated 48-well microplates and the pharmacological treatments were done similarly as to the assessment of the MTT reduction. On the next day, the medium was removed and cells were washed once with warm HBSS and rested in 210 µl HBSS. The plate was left to reach RT before adding 70 µl cell lysis reagent to each well, provided by the kit. […] The plate was incubated in the dark for 10 min at RT before the luminescence signal was measured on a FLUOstar® Omega plate reader. The obtained results were analyzed with the MARS data analysis software (BMG LabTech) and expressed as RLUs. For background correction, the RLUs detected for the background control (i.e., 10 µl of ATP monitoring reagent plus combined with 10 µl of cell lysis reagent) were subtracted from the measured RLUs values of all testing conditions.

[3] = tested on: HO-1; experiment: HO-1 mRNA by RT-qPCR; conditions: 48 h
Protocol: LUHMES cells were seeded on PLO/FN coated 6-well microplates and the pharmacological treatments were performed as previously explained. The cells were washed in HBSS, prior to being collected for mRNA isolation (RNeasy® Plus Mini Kit, Qiagen, Venlo, Netherlands), following the manufacturer’s instructions. The mRNA concentrations were determined on a Nano-Drop 2000c (Thermo Fisher Scientific) and 1 µg of mRNA was reverse-transcribed into cDNA with the iScript™ Reverse Transcription Supermix for RT-qPCR Kit (Bio-Rad) on a thermal cycler (SensoQuest, Göttingen, Germany). Real-time PCR was performed using SYBR™ Select Master Mix for CFX (Thermo Fisher Scientific) with 30 ng cDNA and 0.4 µM of primers against the respective target genes (Supplementary Table S3), in a 20 µl total volume, on a CFX96 Touch™ Real-Time Cycler (Bio-Rad). The relative expression of mRNA was calculated using the CFX Manager software (ΔΔCt method) from Bio-Rad, and the Ct values of the target-genes were normalized to the reference genes RPL22 and UBQLN1. The data were reported as fold change relative to the control (DMSO-treated) condition.

[4] = protective concentration of compound + 20 nM annonacin
[5] = presence of 20 nM annonacin, vs DMSO control under annonacin

Row | Compound | mitochondrial membrane potential (JC-1 aggregates/monomers ratio) ([1]; 20 nM annonacin alone, glucose-reduced medium) | decrease of reduced-MTT compared with healthy control cells ([2]; 20 nM annonacin alone) [%] | HO-1 mRNA expression ([3]; 20 nM annonacin alone (DMSO control condition) vs DMSO control without annonacin) | mitochondrial membrane potential (JC-1 aggregates/monomers ratio) [1, 4] | MTT reduction [2] | HO-1 mRNA expression ([3]; absence of annonacin) | HO-1 mRNA expression [3, 5]
1 | CCCCCCCCCCCC[C@@H](O)[C@H]1CC[C@H]([C@H](O)CCCC[C@H](O)CCCCC[C@@H](O)CC2=CC(C)OC2=O)O1 (stereo partly shown) [annonacin] | significant mitochondrial depolarization | 20 | downregulation of both target-genes | – | – | – | –
2 | O=C1[C@H](CC[C@H](O)c2ccc(F)cc2)[C@@H](c2ccc(O)cc2)N1c1ccc(F)cc1 [ezetimibe] | – | – | – | aggravated mitochondrial depolarization | further decreased the amount of MTT reduction | did not induce significant changes | did not induce significant changes
3 | Cn1c(Nc2nc3ccc(C(F)(F)F)cc3s2)nc2cc(C(=O)NCCOCCO)ccc21 [HPP-D] | – | – | – | rescue the ΔψM from annonacin-induced depolarization | – | 19 fold over DMSO control | significantly rescued from this downregulation
4 | C=CC(C)(C)c1cc(/C=C/C(=O)c2ccc(O)cc2)c(OC)cc1O [licochalcone A] | – | – | – | aggravated mitochondrial depolarization | further decreased the amount of MTT reduction | – | significantly rescued from this downregulation

Source: paper PMC11362529, “Exploring the neuroprotective potential of Nrf2-pathway activators against annonacin toxicity” (Scientific Reports, 2024)
